Test results published in ChEMBL document CHEMBL6103659, “Structural Studies of the Dopamine D4 Receptor Antagonist Sonepiprazole as an Inhibitor of Human Carbonic Anhydrases” (ACS Med Chem Lett, 2025).

Legend:
Carbonic anhydrase 3 = Carbonic anhydrase 3 (Homo sapiens, UniProt P07451)
Carbonic anhydrase 12 = Carbonic anhydrase 12 (Homo sapiens, UniProt O43570)
Carbonic anhydrase 9 = Carbonic anhydrase 9 (Homo sapiens, UniProt Q16790)
Carbonic anhydrase 2 = Carbonic anhydrase 2 (Homo sapiens, UniProt P00918)
Carbonic anhydrase 1 = Carbonic anhydrase 1 (Homo sapiens, UniProt P00915)
Carbonic anhydrase 7 = Carbonic anhydrase 7 (Homo sapiens, UniProt P43166)
Sequence of Carbonic anhydrase 7 (P43166 whole entry): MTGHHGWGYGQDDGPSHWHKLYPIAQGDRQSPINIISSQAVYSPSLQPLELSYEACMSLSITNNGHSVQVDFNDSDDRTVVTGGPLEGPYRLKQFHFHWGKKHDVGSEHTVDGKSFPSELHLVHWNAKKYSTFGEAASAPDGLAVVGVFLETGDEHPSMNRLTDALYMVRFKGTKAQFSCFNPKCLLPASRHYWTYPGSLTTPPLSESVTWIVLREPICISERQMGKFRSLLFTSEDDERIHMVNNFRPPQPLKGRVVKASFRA

Sequence of Carbonic anhydrase 3 (P07451 whole entry): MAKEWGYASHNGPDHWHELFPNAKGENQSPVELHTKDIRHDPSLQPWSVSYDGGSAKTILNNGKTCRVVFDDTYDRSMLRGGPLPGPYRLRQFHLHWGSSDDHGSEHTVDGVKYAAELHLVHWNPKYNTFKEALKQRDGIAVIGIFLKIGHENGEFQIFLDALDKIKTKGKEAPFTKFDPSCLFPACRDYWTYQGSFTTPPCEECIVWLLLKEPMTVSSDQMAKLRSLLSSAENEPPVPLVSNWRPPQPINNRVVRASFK
Sequence of Carbonic anhydrase 12 (O43570 whole entry): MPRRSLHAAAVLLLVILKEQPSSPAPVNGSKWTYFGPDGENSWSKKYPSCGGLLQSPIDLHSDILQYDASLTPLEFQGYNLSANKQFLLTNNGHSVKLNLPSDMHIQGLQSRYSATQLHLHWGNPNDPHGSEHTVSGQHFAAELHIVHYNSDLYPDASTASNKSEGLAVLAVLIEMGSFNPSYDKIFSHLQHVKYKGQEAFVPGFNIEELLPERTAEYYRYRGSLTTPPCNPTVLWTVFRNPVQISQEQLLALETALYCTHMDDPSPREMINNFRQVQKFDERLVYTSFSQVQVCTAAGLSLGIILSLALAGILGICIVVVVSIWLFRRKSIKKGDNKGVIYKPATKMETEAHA
Sequence of Carbonic anhydrase 1 (P00915 whole entry): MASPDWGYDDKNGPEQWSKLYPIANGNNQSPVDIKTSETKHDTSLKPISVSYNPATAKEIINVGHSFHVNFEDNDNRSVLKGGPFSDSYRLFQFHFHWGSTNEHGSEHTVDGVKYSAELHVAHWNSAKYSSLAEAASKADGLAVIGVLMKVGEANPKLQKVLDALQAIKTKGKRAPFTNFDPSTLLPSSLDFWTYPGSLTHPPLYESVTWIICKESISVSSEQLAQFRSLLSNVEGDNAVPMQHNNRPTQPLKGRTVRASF

Row | Compound | Ki (Carbonic anhydrase 3) [nM] | Ki (Carbonic anhydrase 12) [nM] | Ki (Carbonic anhydrase 9) [nM] | Ki (Carbonic anhydrase 2) [nM] | Ki (Carbonic anhydrase 1) [nM] | Ki (Carbonic anhydrase 7) [nM]
1 | NS(=O)(=O)c1ccc(N2CCN(CC[C@@H]3OCCc4ccccc43)CC2)cc1 [SONEPIPRAZOLE] | > 10000 |  |  |  |  | 
2 | C=CCN1CCCC1CNC(=O)c1cc(S(N)(=O)=O)cc(OC)c1OC (configuration not stated) [VERALIPRIDE] | > 10000 | 23.9 | 31.1 | 406 | 2720 | 978
